IC50 data for 26 molecules are collected here from ChEMBL document CHEMBL4665792 (J Med Chem, 2020).

What all share (format): functional, cell-based
One assay has as its system HT-29. The assay can be described thus: Antiproliferative activity against human HT-29 cells assessed as reduction in cell viability incubated for 24 hrs by MTT assay. Conditions: HT-29, 24 h. A general note: Formazan colour is commonly taken as a measure of viable cells.
In a further assay the test system is HCT-116. The assay can be described thus: Antiproliferative activity against human HCT-116 cells assessed as reduction in cell viability incubated for 24 hrs by MTT assay. The conditions noted are these: HCT-116, 24 h.
A further assay deals with MCF7. The assay can be described thus: Antiproliferative activity against human MCF7 cells assessed as reduction in cell viability incubated for 24 hrs by MTT assay. The conditions noted are these: MCF7, 24 h.
Another assay relates to HepG2. Briefly: Antiproliferative activity against human HepG2 cells assessed as reduction in cell viability incubated for 24 hrs by MTT assay. The conditions noted are these: HepG2, 24 h.

The IC50 is the midpoint of a concentration-inhibition curve. With `CC(=O)O[C@H]1C=C([C@H](C)[C@H]2CC(C)=C(C)C(=O)O2)[C@@]2(C)CC[C@H]3[C@@H](C[C@H]4O[C@]45[C@@H](OC(=O)N4CCOCC4)C=CC(=O)[C@]35C)[C@]12O`, the IC50 in the assay with HT-29 was 990 nM; in the assay on HCT-116 it was 780 nM; with MCF7, 3890 nM; with HepG2, 670 nM.
In the same order, the values of `CC(=O)O[C@H]1C=C([C@H](C)[C@H]2CC(C)=C(C)C(=O)O2)[C@@]2(C)CC[C@H]3[C@@H](C[C@H]4O[C@]45[C@@H](OC(=O)CNC(=O)OC(C)(C)C)C=CC(=O)[C@]35C)[C@]12O` are 630 nM, 470 nM, 2160 nM and 640 nM.
In the same order, the values of `CC(=O)O[C@H]1C=C([C@H](C)[C@H]2CC(C)=C(C)C(=O)O2)[C@@]2(C)CC[C@H]3[C@@H](C[C@H]4O[C@]45[C@@H](OC(=O)/C=C/c4ccco4)C=CC(=O)[C@]35C)[C@]12O` are 450 nM, 430 nM, 760 nM and 310 nM.
In the same order, the values of `CC(=O)O[C@H]1C=C([C@H](C)[C@H]2CC(C)=C(C)C(=O)O2)[C@@]2(C)CC[C@H]3[C@@H](C[C@H]4O[C@]45[C@@H](OC(=O)C(CC(C)C)NC(=O)OC(C)(C)C)C=CC(=O)[C@]35C)[C@]12O` (some centres undefined) are 780 nM, 330 nM, 1060 nM and 520 nM.
On to `CC(=O)O[C@H]1C=C([C@H](C)[C@H]2CC(C)=C(C)C(=O)O2)[C@@]2(C)CC[C@H]3[C@@H](C[C@H]4O[C@]45[C@@H](OC(=O)/C=C/c4ccccc4)C=CC(=O)[C@]35C)[C@]12O`, for which the IC50 in the assay on HT-29 turned out to be 770 nM; in the assay with HCT-116 it was 1230 nM; with MCF7 it was 1710 nM; with HepG2 it was 700 nM.
In the same order, the values of `CC(=O)O[C@H]1C=C([C@H](C)[C@H]2CC(C)=C(C)C(=O)O2)[C@@]2(C)CC[C@H]3[C@@H](C[C@H]4O[C@]45[C@@H](OC(=O)c4cccs4)C=CC(=O)[C@]35C)[C@]12O` are 2390 nM, 3870 nM, 4080 nM and 2910 nM.
For `CC(=O)O[C@H]1C=C([C@H](C)[C@H]2CC(C)=C(C)C(=O)O2)[C@@]2(C)CC[C@H]3[C@@H](C[C@H]4O[C@]45[C@@H](OC(C)=O)C=CC(=O)[C@]35C)[C@]12O` the same measures were 800 nM, 600 nM, 3050 nM and 1570 nM.
In the same order, the values of `CCC(C)C(NC(=O)OC(C)(C)C)C(=O)O[C@H]1C=CC(=O)[C@]2(C)[C@H]3CC[C@]4(C)C([C@H](C)[C@H]5CC(C)=C(C)C(=O)O5)=C[C@H](OC(C)=O)[C@@]4(O)[C@@H]3C[C@H]3O[C@]132` (some centres undefined) are 1080 nM, 570 nM, 4810 nM and 1660 nM.
Consider `CC(=O)O[C@H]1C=C([C@H](C)[C@H]2CC(C)=C(C)C(=O)O2)[C@@]2(C)CC[C@H]3[C@@H](C[C@H]4O[C@]45[C@@H](OC(=O)C=C(C)C)C=CC(=O)[C@]35C)[C@]12O`, for which the IC50 in the assay on HT-29 worked out at 460 nM; with HCT-116 it was 280 nM; with MCF7, 750 nM; in the assay with HepG2 it was 260 nM.
`CC(=O)O[C@H]1C=C([C@H](C)[C@H]2CC(C)=C(C)C(=O)O2)[C@@]2(C)CC[C@H]3[C@@H](C[C@H]4O[C@]45[C@@H](OC(=O)N4CCCCC4)C=CC(=O)[C@]35C)[C@]12O`: the IC50 was 1380 nM with HT-29, 730 nM in the assay on HCT-116, 4310 nM with MCF7 and 410 nM in the assay on HepG2.
In the same order, the values of `C=C(C)C(=O)O[C@H]1C=CC(=O)[C@]2(C)[C@H]3CC[C@]4(C)C([C@H](C)[C@H]5CC(C)=C(C)C(=O)O5)=C[C@H](OC(C)=O)[C@@]4(O)[C@@H]3C[C@H]3O[C@]132` are 1120 nM, 1340 nM, 2110 nM and 1450 nM.
Take `CC(=O)O[C@H]1C=C([C@H](C)[C@H]2CC(C)=C(C)C(=O)O2)[C@@]2(C)CC[C@H]3[C@@H](C[C@H]4O[C@]45[C@@H](OC(=O)/C=C/C(=O)N4CCCC4)C=CC(=O)[C@]35C)[C@]12O`: the half-maximal inhibitory concentration (IC50) in the assay with HT-29 turned out to be 250 nM; in the assay with HCT-116, 200 nM; with MCF7 it was 380 nM; with HepG2 it was 290 nM.
On to `CC(=O)O[C@H]1C=C([C@H](C)[C@H]2CC(C)=C(C)C(=O)O2)[C@@]2(C)CC[C@H]3[C@@H](C[C@H]4O[C@]45[C@@H](O)C(N(C)CC(=O)O)CC(=O)[C@]35C)[C@]12O` (some centres undefined), for which the IC50 with HT-29, in the assay on HCT-116, in the assay on MCF7 and with HepG2 was above 20000 nM each time.
Take `CC(=O)O[C@H]1C=C([C@H](C)[C@H]2CC(C)=C(C)C(=O)O2)[C@@]2(C)CC[C@H]3[C@@H](C[C@H]4O[C@]45[C@@H](OC(=O)C4CCCN4C(=O)OC(C)(C)C)C=CC(=O)[C@]35C)[C@]12O` (some centres undefined): the half-inhibitory concentration (IC50) is 1010 nM in the assay on HT-29, 670 nM in the assay with HCT-116, 2100 nM in the assay with MCF7 and 1060 nM in the assay on HepG2.
For `CC(=O)O[C@H]1C=C([C@H](C)[C@H]2CC(C)=C(C)C(=O)O2)[C@@]2(C)CC[C@H]3[C@@H](C[C@H]4O[C@]45[C@@H](O[Si](C)(C)C(C)(C)C)C=CC(=O)[C@]35C)[C@]12O` the same measures were 1060 nM, 1770 nM, 6140 nM and 3010 nM.
In the same order, the values of `CC(=O)O[C@H]1C=C([C@H](C)[C@H]2CC(C)=C(C)C(=O)O2)[C@@]2(C)CC[C@H]3[C@@H](C[C@@H](O)[C@@]4(Cl)[C@@H](O)C=CC(=O)[C@]34C)[C@]12O` are above 20000 nM, above 20000 nM, above 20000 nM and above 20000 nM.
As to `CC(=O)O[C@H]1C=C([C@H](C)[C@H]2CC(C)=C(C)C(=O)O2)[C@@]2(C)CC[C@H]3[C@@H](C[C@H]4O[C@]45[C@@H](OC(=O)/C=C/C(=O)N4CCCCC4)C=CC(=O)[C@]35C)[C@]12O`, the IC50 came to 370 nM with HT-29, 160 nM in the assay on HCT-116, 610 nM with MCF7 and 310 nM in the assay on HepG2.
For `CC(=O)O[C@H]1C=C([C@H](C)[C@H]2CC(C)=C(C)C(=O)O2)[C@@]2(C)CC[C@H]3[C@@H](C[C@H]4O[C@]45[C@@H](OC(=O)N4CCCC4)C=CC(=O)[C@]35C)[C@]12O` the same measures were 1120 nM, 890 nM, 2140 nM and 1230 nM.
For `CC(=O)O[C@H]1C=C([C@H](C)[C@H]2CC(C)=C(C)C(=O)O2)[C@@]2(C)CC[C@H]3[C@@H](C[C@H]4O[C@]45C(=O)C=CC(=O)[C@]35C)[C@]12O` the same measures were 3500 nM, 3110 nM, above 20000 nM and 6050 nM.
In the same order, the values of `CC(=O)O[C@H]1C=C([C@H](C)[C@H]2CC(C)=C(C)C(=O)O2)[C@@]2(C)CC[C@H]3[C@@H](C[C@H]4O[C@]45[C@@H](OC(=O)/C=C/c4cccc(C(F)(F)F)c4)C=CC(=O)[C@]35C)[C@]12O` are 810 nM, 650 nM, 1390 nM and 420 nM.
As for `CCN(CC)C(=O)/C=C/C(=O)O[C@H]1C=CC(=O)[C@]2(C)[C@H]3CC[C@]4(C)C([C@H](C)[C@H]5CC(C)=C(C)C(=O)O5)=C[C@H](OC(C)=O)[C@@]4(O)[C@@H]3C[C@H]3O[C@]132`, the IC50 is 300 nM in the assay on HT-29, 250 nM with HCT-116, 450 nM with MCF7 and 310 nM with HepG2.
Regarding `C/C=C/C(=O)O[C@H]1C=CC(=O)[C@]2(C)[C@H]3CC[C@]4(C)C([C@H](C)[C@H]5CC(C)=C(C)C(=O)O5)=C[C@H](OC(C)=O)[C@@]4(O)[C@@H]3C[C@H]3O[C@]132`, the IC50 is 370 nM in the assay on HT-29, 230 nM in the assay with HCT-116, 530 nM in the assay with MCF7 and 300 nM with HepG2.
In the same order, the values of `CC(=O)O[C@H]1C=C([C@H](C)[C@H]2CC(C)=C(C)C(=O)O2)[C@@]2(C)CC[C@H]3[C@@H](C[C@H]4O[C@]45[C@@H](OC(=O)/C=C/C(=O)N(C(C)C)C(C)C)C=CC(=O)[C@]35C)[C@]12O` are 190 nM, 350 nM, 620 nM and 360 nM.
For `CCOC(=O)/C=C/C(=O)O[C@H]1C=CC(=O)[C@]2(C)[C@H]3CC[C@]4(C)C([C@H](C)[C@H]5CC(C)=C(C)C(=O)O5)=C[C@H](OC(C)=O)[C@@]4(O)[C@@H]3C[C@H]3O[C@]132` the same measures were 230 nM, 250 nM, 280 nM and 240 nM.
With `CC(=O)O[C@H]1C=C([C@H](C)[C@H]2CC(C)=C(C)C(=O)O2)[C@@]2(C)CC[C@H]3[C@@H](C[C@H]4O[C@]45[C@@H](OC(=O)CCc4ccccc4)C=CC(=O)[C@]35C)[C@]12O`, the IC50 in the assay on HT-29 worked out at 4050 nM; with HCT-116 it was 5840 nM; with MCF7, 8180 nM; in the assay on HepG2, 5760 nM.
For `CC(=O)O[C@H]1C=C([C@H](C)[C@H]2CC(C)=C(C)C(=O)O2)[C@@]2(C)CC[C@H]3[C@@H](C[C@H]4O[C@]45[C@@H](OC(=O)N(C)C)C=CC(=O)[C@]35C)[C@]12O` the same measures were 1010 nM, 670 nM, 2100 nM and 1060 nM.
